Reference: ChEMBL document CHEMBL1201862, “PubChem BioAssay data set” (2004)
Calls of active or inactive are those of the source. For most assays here, no stated cut-off is given here; in the data, actives have a measured EC50 and inactives only a lower limit.

Tests used:
[1] = target: T1, Hexokinase HKDC1 (Homo sapiens, UniProt Q2TB90); test: HKDC1 hexokinase inhibitors, SAR follow-up, biochemical, set 2 (AID 588355); assay type: functional
T1 sequence (Q2TB90 whole entry): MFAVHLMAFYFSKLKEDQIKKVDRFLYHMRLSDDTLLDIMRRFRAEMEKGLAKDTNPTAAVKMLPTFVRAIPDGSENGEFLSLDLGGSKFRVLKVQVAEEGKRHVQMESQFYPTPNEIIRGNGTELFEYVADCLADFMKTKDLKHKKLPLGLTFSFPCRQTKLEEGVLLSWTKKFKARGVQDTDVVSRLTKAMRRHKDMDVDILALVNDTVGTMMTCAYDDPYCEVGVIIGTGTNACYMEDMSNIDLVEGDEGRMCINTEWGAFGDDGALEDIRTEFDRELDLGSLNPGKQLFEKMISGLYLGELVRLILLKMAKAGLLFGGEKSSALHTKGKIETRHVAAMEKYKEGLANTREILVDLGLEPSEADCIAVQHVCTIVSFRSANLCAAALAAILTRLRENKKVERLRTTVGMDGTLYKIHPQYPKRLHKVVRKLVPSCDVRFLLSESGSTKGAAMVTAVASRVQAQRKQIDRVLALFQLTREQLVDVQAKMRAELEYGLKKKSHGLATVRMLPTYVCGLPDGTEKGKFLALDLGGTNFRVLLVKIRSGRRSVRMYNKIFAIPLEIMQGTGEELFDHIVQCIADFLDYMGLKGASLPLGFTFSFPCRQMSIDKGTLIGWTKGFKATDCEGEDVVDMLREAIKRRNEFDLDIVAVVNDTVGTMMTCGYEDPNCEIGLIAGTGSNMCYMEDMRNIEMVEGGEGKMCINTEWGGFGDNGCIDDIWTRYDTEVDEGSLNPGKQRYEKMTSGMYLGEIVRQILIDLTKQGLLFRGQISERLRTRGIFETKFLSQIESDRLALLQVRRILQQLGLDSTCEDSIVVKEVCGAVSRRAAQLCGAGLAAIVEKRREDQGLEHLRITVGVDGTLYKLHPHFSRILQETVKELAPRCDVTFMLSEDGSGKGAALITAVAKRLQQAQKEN

[2] = target: T2, Hexokinase-1 (Homo sapiens, UniProt P19367); test: HK1 enzyme inhibition by HKDC1 hits, SAR follow-up, selectivity assay for HKDC1 inhibitor project, biochemical, set 2, resazurin fluorescence coupled readout (AID 588356); assay type: functional
T2 sequence (P19367 whole entry): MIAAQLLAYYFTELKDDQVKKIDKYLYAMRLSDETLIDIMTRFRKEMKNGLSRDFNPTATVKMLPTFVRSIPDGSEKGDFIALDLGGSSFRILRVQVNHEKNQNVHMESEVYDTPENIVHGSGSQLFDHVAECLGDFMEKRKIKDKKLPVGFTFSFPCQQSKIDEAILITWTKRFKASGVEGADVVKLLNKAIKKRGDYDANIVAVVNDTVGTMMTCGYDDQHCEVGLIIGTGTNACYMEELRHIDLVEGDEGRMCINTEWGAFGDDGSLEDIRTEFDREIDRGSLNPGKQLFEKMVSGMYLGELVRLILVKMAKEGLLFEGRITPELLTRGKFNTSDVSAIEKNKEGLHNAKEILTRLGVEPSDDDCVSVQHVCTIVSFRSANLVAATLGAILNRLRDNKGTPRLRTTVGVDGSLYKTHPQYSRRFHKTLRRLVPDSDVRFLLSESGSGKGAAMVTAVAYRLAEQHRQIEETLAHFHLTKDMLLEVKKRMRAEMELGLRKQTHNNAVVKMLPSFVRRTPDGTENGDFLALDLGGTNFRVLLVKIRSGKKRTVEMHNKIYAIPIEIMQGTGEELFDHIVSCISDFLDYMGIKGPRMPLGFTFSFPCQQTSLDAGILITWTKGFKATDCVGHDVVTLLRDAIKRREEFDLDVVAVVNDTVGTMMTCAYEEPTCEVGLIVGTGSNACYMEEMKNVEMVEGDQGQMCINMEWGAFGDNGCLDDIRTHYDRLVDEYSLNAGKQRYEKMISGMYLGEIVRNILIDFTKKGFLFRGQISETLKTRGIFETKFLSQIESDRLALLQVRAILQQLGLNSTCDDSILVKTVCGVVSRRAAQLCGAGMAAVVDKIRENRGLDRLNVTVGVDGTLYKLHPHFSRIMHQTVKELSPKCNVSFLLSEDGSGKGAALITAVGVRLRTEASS

[3] = tested on: Vero; test: cells; assay type: functional; details: Chlorocebus sabaeus
[4] = tested on: BJ; test: cytotoxicity toward BJ-TERT fibroblasts, dose response, cell-based, RAS-independent, luminescence (AID 1933); assay type: functional; details: Homo sapiens
[5] = tested on: BJ; test: cytotoxicity toward Ras-transformed BJeLR fibroblasts, dose response, cell-based, alamar blue fluorescence, cherrypicked samples (AID 2631); assay type: functional; details: Homo sapiens;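 further: confirmatory dose-response assay in RAS-dependent BJ fibroblasts engineered with TERT, LT and ST, with cytotoxicity read by fluorescence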
[6] = Luminescence Cell-Based Dose Confirmation HTS to Identify Activators of 5'UTR Stem-Loop Driven Alpha-Synuclein mRNA Translation in H4 Neuroglioblastoma Cells. [Related pubchem assays: 1829 (Project Summary), 1814 (Primary HTS)]; assay type: functional
[7] = Luminescence Cell-Based Dose Response HTS to Identify Activators of Luciferase Translation or Activity in H4 […] Cells. [Related pubchem assays: 1829 (Project Summary), 1814 (Primary HTS)]; assay type: functional
[8] = tested on: BJ; test: cells; assay type: functional, cell-based; details: Homo sapiens
[9] = tested on: BJ; test: cytotoxicity toward BJ-TERT-LT-ST fibroblasts, dose response, cell-based, RAS-independent, luminescence (AID 1935); assay type: functional; details: Homo sapiens;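 further: BJ fibroblasts immortalized with TERT plus LT and ST oncogenes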
[10] = tested on: H4; test: Luminescence Cell-Based Dose Response HTS to Identify Activators of 5'UTR Stem-Loop Driven Prion Protein mRNA Translation in H4 Neuroglioblastoma Cells. [Related pubchem assays: 1829 (Project Summary), 1814 (Primary HTS)]; assay type: functional; details: Homo sapiens
[11] = cytotoxicity toward DRD oncogenic fibroblasts, dose response, cell-based, non-viral oncogenic, luminescence (AID 1934); assay type: functional; details: Homo sapiens
[12] = target: Type-1 angiotensin II receptor (Homo sapiens, UniProt P30556); test: AT1 receptor antagonists, dose response, selectivity assay for APJ receptor antagonist project, cell-based, uHTS hits (AID 463214); assay type: functional;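 further: antagonist potency against angiotensin II stimulated AT1 response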
[13] = target: Beta-galactosidase (Escherichia coli, UniProt Q8VNN2); test: PubChem AID 485352; assay type: functional
Sequence of Beta-galactosidase (Q8VNN2 whole entry): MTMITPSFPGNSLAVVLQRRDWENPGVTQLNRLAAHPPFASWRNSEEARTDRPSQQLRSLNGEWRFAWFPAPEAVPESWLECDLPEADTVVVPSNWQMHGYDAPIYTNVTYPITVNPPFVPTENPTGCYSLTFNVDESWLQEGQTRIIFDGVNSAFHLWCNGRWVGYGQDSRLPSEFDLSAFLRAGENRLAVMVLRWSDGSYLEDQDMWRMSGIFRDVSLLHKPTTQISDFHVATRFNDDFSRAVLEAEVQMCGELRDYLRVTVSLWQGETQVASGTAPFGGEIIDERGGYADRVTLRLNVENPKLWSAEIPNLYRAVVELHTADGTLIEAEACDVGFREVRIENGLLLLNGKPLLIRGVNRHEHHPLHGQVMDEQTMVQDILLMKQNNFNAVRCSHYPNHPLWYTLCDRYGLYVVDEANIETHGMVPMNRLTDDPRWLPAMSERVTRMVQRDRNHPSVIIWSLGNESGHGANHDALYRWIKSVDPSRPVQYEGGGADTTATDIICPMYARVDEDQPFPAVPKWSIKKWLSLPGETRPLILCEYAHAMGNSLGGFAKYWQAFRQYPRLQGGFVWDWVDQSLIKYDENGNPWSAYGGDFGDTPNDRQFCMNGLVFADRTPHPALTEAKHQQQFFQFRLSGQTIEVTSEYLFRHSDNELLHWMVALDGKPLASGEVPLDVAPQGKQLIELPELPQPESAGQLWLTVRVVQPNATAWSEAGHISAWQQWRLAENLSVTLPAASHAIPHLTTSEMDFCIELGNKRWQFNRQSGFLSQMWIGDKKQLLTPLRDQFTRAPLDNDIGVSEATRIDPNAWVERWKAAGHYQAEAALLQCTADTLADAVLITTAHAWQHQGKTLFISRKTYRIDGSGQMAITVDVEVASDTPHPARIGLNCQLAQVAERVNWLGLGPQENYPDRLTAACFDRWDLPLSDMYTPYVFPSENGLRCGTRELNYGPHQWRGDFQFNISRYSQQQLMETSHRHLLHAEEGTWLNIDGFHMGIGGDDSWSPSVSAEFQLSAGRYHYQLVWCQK

Sequence of Type-1 angiotensin II receptor (P30556 whole entry): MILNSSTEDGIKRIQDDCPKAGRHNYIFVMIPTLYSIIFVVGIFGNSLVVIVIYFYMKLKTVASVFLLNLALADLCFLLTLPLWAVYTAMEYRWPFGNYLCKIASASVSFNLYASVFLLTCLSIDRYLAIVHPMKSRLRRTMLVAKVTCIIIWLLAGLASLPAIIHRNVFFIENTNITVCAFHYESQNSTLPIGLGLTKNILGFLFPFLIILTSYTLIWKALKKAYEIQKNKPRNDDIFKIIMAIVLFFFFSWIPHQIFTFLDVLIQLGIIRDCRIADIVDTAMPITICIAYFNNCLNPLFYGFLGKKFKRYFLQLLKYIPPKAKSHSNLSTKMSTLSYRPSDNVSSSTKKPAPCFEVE

For COc1cc2c(cc1OC)-c1cc(Nc3cccc4ccccc34)nc(=O)n1CC2, the IC50 [1] was > 80 µM (inactive) and the IC50 [2] was > 80 µM (inactive).

For O=c1c2ccc(F)cc2nc(/C=C/c2cccnc2)n1Cc1ccccc1, the IC50 [1] was > 80 µM (inactive) and the IC50 [2] was > 80 µM (inactive).

For CN1CCN(C(=O)CCCN2C(=O)/C(=C/c3cccc(Br)c3)SC2=S)CC1, the CC50 [3] was > 25 µM (active), the EC50 [4] was 1.93 µM (active) and the EC50 [5] was > 66.7 µM (inactive). For the same compound, the EC50 [6] was 13.9 µM (active), the EC50 [7] was > 120 µM (not active) and the EC50 [8] was > 150 µM (inconclusive). For the same compound, the EC50 [9] was > 150 µM (inconclusive), the EC50 [10] was > 120 µM (not active) and the EC50 [11] was 4.36 µM (active).

For O=C(O)c1cccc(NC(=S)NC(=O)c2cncc(Br)c2)c1, the IC50 [12] was > 40 µM (not active) and the EC50 [13] was > 40 µM (inactive).
